Experimental data as given in publication PMC3423353, “Natural Iminosugar (+)-Lentiginosine Inhibits ATPase and Chaperone Activity of Hsp90” (PLoS ONE, 2012).

What was measured:
[1] = target: T1, Hsp90 ATPase activity (Homo sapiens, UniProt P07900); test: ATP hydrolysis inhibition (ADP Hunter Plus assay); assay type: biochemical; settings: 40 nM Hsp90, 100 µM ATP; for inhibition of the ATPase activity of Hsp90: 60 min, 40°C, different concentrations
T1 construct: purchased Assay Designs (Ann Arbor, MI, USA); host or cells: E. coli
Description: To evaluate the effect of interacting compounds on Hsp90 biological activity, the ATPase activity of the enzyme was tested in the presence of the most affine compounds (1, 3 and 4); […]. (−)-Lentiginosine was used as negative control.
The Discover RX ADP HunterTM Plus Assay kit was used following the manufacturer’s instructions. […]. ADP generation was measured using a Perkin Elmer LS 55 fluorimeter (540 nm excitation and 620 nm emission). Fluorescence intensity values measured for Hsp90 without any testing compound was assumed as 100% of enzyme activity. The background reaction rate was measured in a reaction lacking enzyme or substrate and subtracted from the experimental rates.

[2] = target: T2, Hsp90 chaperone activity (Homo sapiens, UniProt P07900); test: Citrate synthase thermal aggregation assay (chaperone activity); assay type: biochemical; settings: 0.075 µM CS, 0.075 µM Hsp90, 0.3 µM compound (4-fold molar excess), 43°C, light scattering
T2 construct: purchased Assay Designs (Ann Arbor, MI, USA); host or cells: E. coli
Description: The ability of compounds 1, 3 and 4 to inhibit the chaperone activity of Hsp90 was also evaluated monitoring the citrate synthase (CS) thermal induced aggregation in the presence of Hsp90 [24], with or without these compounds. […] The spontaneous aggregation of CS at 43°C (♦) and the aggregation of CS at 43°C in the presence of 0.075 µM Hsp90 (Δ) or of 0.075 µM Hsp90 and 0.3 µM compound 1 (▪), 0.3 µM compound 2 (•), 0.3 compound 3 (□), or 0.3 µM compound 4 (○) are shown. Chaperone activity was evaluated as reported elsewhere by monitoring the thermal-induced aggregation of Citrate synthase (CS) in absence or in presence of a stoichiometric amount of Hsp90, and with or without a 4-fold molar excess of each testing compound. Aggregation was initiated by unfolding CS (0.075 µM) incubating the protein in 40 mM HEPES–KOH, pH 7.5 at 43°C. Aggregation was monitored by measuring light scattering at right angles with Perkin Elmer LS 55 fluorimeter in stirred and thermostated quartz cells. Both the emission and excitation wavelengths were set at 500 nm, and the band pass was 2 nm. Kinetics traces reported here are the averages of two measurements.

[3] = target: T3, Hsp90 (Homo sapiens, UniProt P07900); test: SPR binding assay on immobilized Hsp90
T3 construct: purchased Assay Designs (Ann Arbor, MI, USA); host or cells: E. coli
Description: Radicicol was used as positive controls.
SPR analyses were performed as describe elsewhere, [38]. Briefly, SPR analyses were performed using a Biacore 3000 optical biosensor equipped with research-grade CM5 sensor chips (GE Healthcare). Using this platform, two separate recombinant Hsp90 surfaces, a BSA surface and an unmodified reference surface were prepared for simultaneous analyses. […] Included in each analysis were multiple blank samples of running buffer alone. Binding experiments were performed at 25°C, using a flow rate of 50 µL min^−1, with 60 s monitoring of association and 200 s monitoring of dissociation. […] Sensorgram elaborations were performed using the Biaevaluation software provided by GE Healthcare.

[4] = target: T4, human full length recombinant Hsp90 (Homo sapiens, UniProt P07900); test: Competitive fluorescence polarization assay with fluorescent geldanamycin probe (fGDA); assay type: binding; settings: concentration up to 100 µM, added before or after fGDA
T4 construct: purchased Assay Designs (Ann Arbor, MI, USA); host or cells: E. coli
Description: In an effort to identify the Hsp90 region involved in (+)-lentiginosine binding, we first performed some fluorescence polarization assays using a fluorescent geldanamycin probe (fGDA) to evaluate if this compound could interact with the ATP-binding pocket of Hsp90 [25].
Binding of compound 1 to human full length recombinant Hsp90 was determined by a competitive binding fluorescence polarization assay using a fluorescent geldanamycin probe, as reported elsewhere.

[5] = immobilized Hsp90, 25°C, single-site bimolecular model

| Kd [3, 5] [nM] | koff [3, 5] | SMILES | inhibition of the ATPase activity of Hsp90 [1] | inhibition of Hsp90 chaperone activity (CS aggregation kinetics) [2] | interaction with immobilized Hsp90 ([3]; 0.020 to 1 µM) | KD [3, 5] | ATPase inhibitory power compared with 17-AAG [1] | displacement of fGDA from Hsp90 [4] |
| --- | --- | --- | --- | --- | --- | --- | --- | --- |
| 116 ± 1.6 | 2.55±0.35 10^-3 1/s | OCCc1cn([C@H]2CCN3C[C@H](O)[C@@H](O)[C@@H]3C2)nn1 [Compound 5] | – | – | – | – | – | – |
| 306.8 ± 2.9 | 4.12±0.81 10^-3 1/s | N[C@@H](Cc1c[nH]c2ccccc12)C(=O)NCc1cn([C@H]2CCN3C[C@H](O)[C@@H](O)[C@@H]3C2)nn1 [Compound 6] | – | – | – | – | – | – |

Continued, compound first:

| SMILES | Kd [3, 5] [nM] | koff [3, 5] | inhibition of the ATPase activity of Hsp90 [1] | inhibition of Hsp90 chaperone activity (CS aggregation kinetics) [2] | interaction with immobilized Hsp90 ([3]; 0.020 to 1 µM) | KD [3, 5] | ATPase inhibitory power compared with 17-AAG [1] | displacement of fGDA from Hsp90 [4] |
| --- | --- | --- | --- | --- | --- | --- | --- | --- |
| N=C(N)NCCC[C@H](N)C(=O)N[C@H]1CCN2C[C@H](O)[C@@H](O)[C@@H]2C1 [Compound 3] | 108 ± 1.1 | 2.18±0.23 10^-3 1/s | inhibit the ATPase activity of Hsp90 in a concentration dependent manner | inhibitory effects were less evident | – | – | – | – |
| CCCCCCc1cn([C@H]2CCN3C[C@H](O)[C@@H](O)[C@@H]3C2)nn1 [Compound 4] | 45.9 ± 0.5 | 2.05±0.42 10^-3 1/s | inhibit the ATPase activity of Hsp90 in a concentration dependent manner | inhibitory effects were less evident | – | – | – | – |
| O[C@H]1[C@H](O)CN2CCCC[C@H]12 [Compound 2, (−)-lentiginosine] | – | – | – | not able to inhibit the chaperone activity of Hsp90 | did not bind | No binding | – | – |
| N[C@H]1CCN2C[C@H](O)[C@@H](O)[C@@H]2C1 [Compound 7] | 1009 ± 5.8 | 25.6±2.1 10^-3 1/s | – | – | – | – | – | – |
| O[C@@H]1[C@@H](O)CN2CCCC[C@@H]12 [Compound 1, (+)-lentiginosine] | 24.7 ± 0.6 | 1.86±0.31 10^-3 1/s | inhibit the ATPase activity of Hsp90 in a concentration dependent manner | inhibition of Hsp90 chaperone activity | – | – | inhibitory power higher than that measured for 17-AAG | unable to displace fGDA |
